Tests used:
E. coli leader peptidase = E. coli leader peptidase (Escherichia coli, UniProt P00803); settings: cited from earlier work
Decanoyl-[…]OH = target: T1, Decanoyl-[…]OH
T1 chain: LTPTAKAASKIDD

Octanoyl-[…]OH = target: T2, Octanoyl-[…]OH
T2 chain: LTPTAKAASKIDD

Sequence of E. coli leader peptidase (P00803 whole entry): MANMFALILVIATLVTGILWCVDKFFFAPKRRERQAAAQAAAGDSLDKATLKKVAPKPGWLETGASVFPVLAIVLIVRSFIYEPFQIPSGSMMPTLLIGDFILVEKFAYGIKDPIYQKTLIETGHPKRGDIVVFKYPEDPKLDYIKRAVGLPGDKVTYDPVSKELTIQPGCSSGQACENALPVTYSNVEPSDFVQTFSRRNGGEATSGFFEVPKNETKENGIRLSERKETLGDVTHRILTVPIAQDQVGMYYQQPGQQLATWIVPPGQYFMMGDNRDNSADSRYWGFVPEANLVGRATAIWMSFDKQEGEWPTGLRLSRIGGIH

ALAKI
rate of turnover (E. coli leader peptidase; Dev et al): very slow

ASVAVATLVPMLSFAAEGDDPAK
rate of cleavage (E. coli leader peptidase; versus parent M13 procoat protein, Dierstein and Wickner): comparable to that of the parent

B1: S. aureus SpsB signal peptidase (protein)
chain: MKKELLEWIISIAVAFVILFIVGKFIVTPYTIKGESMDPTLKDGERVAVNIIGYKTGGLEKGNVVVFHANKNDDYVKRVIGVPGDKVEYKNDTLYVNGKKQDEPYLNYNLKHKQGDYITGTFQVKDLPNANPKSNVIPKGKYLVLGDNREVSKDSRAFGLIDEDQIVGKVSFRFWPFSEFKHNFNPENTKN
processing after 30 minutes (HPLC/MS cleavage assay) (Decanoyl-[…]OH): >80% processing after 30 minutes | processing after 30 minutes (HPLC/MS cleavage assay) (Octanoyl-[…]OH): >80% processing after 30 minutes

Reference: patent US20040024178A1, “Bacterial signal peptidase inhibitors and uses thereof” (priority 1999, published 2004)
